ChEMBL document CHEMBL4396877, “Design and Synthesis of TASIN Analogues Specifically Targeting Colorectal Cancer Cell Lines with Mutant Adenomatous Polyposis Coli (APC)” (J Med Chem, 2019)

Columns and labels:
[1] = AUClast in CD-1 mouse Large intestine at 10 mg/kg, ip after 10 to 1440 mins by LC/MS analysis; assay type: ADME, organism-based; conditions: in vivo
[2] = Cmax in CD-1 mouse large intestine at 10 mg/kg, iv after 10 to 1440 mins by LC/MS analysis; assay type: ADME, organism-based; design: dose 10 mg/kg, route intravenous
[3] = Volume of distribution in CD-1 mouse by LC-MS/MS analysis; assay type: ADME; conditions: in vivo
[4] = Cmax in CD-1 mouse large intestine at 10 mg/kg, ip after 10 to 1440 mins by LC/MS analysis; assay type: ADME, organism-based; design: dose 10 mg/kg, route intraperitoneal
[5] = AUClast in CD-1 mouse Large intestine at 10 mg/kg, iv after 10 to 1440 mins by LC/MS analysis; assay type: ADME, organism-based; conditions: in vivo
[6] = Tmax in CD-1 mouse large intestine at 10 mg/kg, iv after 10 to 1440 mins by LC/MS analysis; assay type: ADME, organism-based
[7] = Tmax in CD-1 mouse large intestine at 10 mg/kg, ip after 10 to 1440 mins by LC/MS analysis; assay type: ADME, organism-based
[8] = Tmax in CD-1 mouse large intestine at 20 mg/kg, po after 10 to 1440 mins by LC/MS analysis; assay type: ADME, organism-based
[9] = Cmax in CD-1 mouse large intestine at 20 mg/kg, po after 10 to 1440 mins by LC/MS analysis; assay type: ADME, organism-based; design: dose 20 mg/kg, route oral
[10] = Tmax in CD-1 mouse large intestine at 5 mg/kg, iv after 10 to 1440 mins by LC/MS analysis; assay type: ADME, organism-based
[11] = AUClast in CD-1 mouse Large intestine at 20 mg/kg, po after 10 to 1440 mins by LC/MS analysis; assay type: ADME, organism-based; conditions: in vivo
[12] = AUClast in CD-1 mouse Large intestine at 5 mg/kg, iv after 10 to 1440 mins by LC/MS analysis; assay type: ADME, organism-based; conditions: in vivo
[13] = Cmax in CD-1 mouse large intestine at 5 mg/kg, iv after 10 to 1440 mins by LC/MS analysis; assay type: ADME, organism-based; design: dose 5 mg/kg, route intravenous
[14] = Ratio of drug level in lung to plasma of CD-1 mouse at 5 mg/kg, iv; assay type: ADME, organism-based

AUClast [1] [ng·min/g]	Cmax [2] [ng/g]	Vd [3] [L/kg]	Cmax [4] [ng/g]	AUClast [5] [ng·min/g]	Tmax [6] [min]	Tmax [7] [min]	Tmax [8] [min]	Cmax [9] [ng/g]	Tmax [10] [min]	AUClast [11] [ng·min/g]	AUClast [12] [ng·min/g]	Cmax [13] [ng/g]	Kp [14]	Structure (SMILES)
633289	2970	5.87 to 63	5750	559037	10	10								C#CCC1CCN(C2CCN(S(=O)(=O)c3ccc(Br)cc3)CC2)CC1
	1410	5.87 to 63		262874										CC1CCN(C2CCN(S(=O)(=O)c3ccc(Cl)cc3)CC2)CC1
790425		5.87 to 63	10100			10	10	3250	10	890969	511878	1820	5.7	CC1CCN(C2CCN(S(=O)(=O)c3ccc(OC(F)F)cc3)CC2)CC1
737709			10700			10								COc1ccc(S(=O)(=O)N2CCC(N3CCC(C)CC3)CC2)cc1
